The text below walks through data of patent US20080004200A1, “Enzyme stabilization” (priority 2006, published 2008).

Where a SMILES comes first, the peptide text is derived from it. The star is where a group is joined. Moc = COC(=O)*

This assay deals with Gram negative bacteria. As to the kind of experiment: Gram negative cocktail challenge test in inoculated standard liquid laundry detergent. In kind it is cell-based. The following applies: inhibitor 0.004% by weight in standard liquid laundry detergent; for Count (log viable cells): stored at 35° C. How it is done:
To determine if a compound is capable of at least inhibiting the growth of at least one Gram negative bacteria in the liquid detergent the following test is performed.
A mixture of Gram negative bacteria, also known as a Gram negative cocktail or cocktail, is prepared. The Gram negative cocktail comprises a mixture of Pseudomonas aeruginosa ATCC 9027, Pseudomonas fluorescens ATCC 13525, Burkholderia (Pseudomonas) cepacia ATCC 25416, Klebsiella oxytoca ATCC 13182, Escherichia coli ATCC 8739, Citrobacter freundii ATCC 8090 and Serratia liquefaciens ATCC 27592. The Gram negative bacterial cocktail is prepared by growing each organism individually on plates containing a growth medium and picking isolated colonies for preparation of the Gram negative cocktail. The growth medium is TSA (tryptic soy agar, available from Becton Dickinson). TSA contains per liter water: 15 g pancreatic digest of casein, 5 g enzymatic digest of soy bean meal, 5 g sodium chloride, and 15 g agar with the pH adjusted to 7.3±0.2 using hydrochloric acid, HCL (J. T. Baker).
The individually selected colonies are added to sterilized saline and adjusted to a McFarland standard of #2 (Available from bioMerieux, Inc.) to prepare a standardized saline suspension for the organism. This is repeated for each organism individually, thereby by preparing a standardized saline suspension for each organism. An equal volume (1 ml) of each standardized saline suspension of the following cocktail members are mixed together: Pseudomonas aeruginosa ATCC 9027, Pseudomonas fluorescens ATCC 13525, Burkholderia (Pseudomonas) cepacia ATCC 25416, Klebsiella oxytoca ATCC 13182, Escherichia coli ATCC 8739, Citrobacter freundii ATCC 8090 and Serratia liquefaciens ATCC 27592.
An inoculated liquid laundry detergent is prepared by the addition to 49.5 ml of the standard liquid laundry detergent, described in Table A below, of 0.5 ml of the Gram negative bacterial cocktail as prepared above. This standard liquid laundry detergent also contains from about 0.00001% to about 5%, by weight of the composition, of one or more of the tripeptide enzyme inhibitors described herein.
As the cocktail contains approximately 10^7 to 10^8 cfu/ml (colony forming units/ml); the resulting inoculum level in the inoculated liquid laundry detergent is 10^5 to 10^6 cfu/ml. The inoculated liquid laundry detergent is stored at 35° C., a relative humidity of about 60% and at standard pressure, i.e. 1 atmosphere. Samples of Iml are removed from the inoculated liquid laundry detergent at the following times, 1 day, 2 days, 7 days, 14 days, 21 days and 28 days. These 1 ml samples, are immediately neutralized by addition to a neutralizer, namely polyvalent universal neutralizer (PVUN) which contains (per liter distilled water): 30 g Polysorbate 80 (Available under the brand Tween 80, from VWR International), 5 g Sodium thiosulfate, Ig L-Histidine, Ig Peptone, 8.5 g Sodium chloride, 14.3 g Lecithin with the pH adjusted to 7.0±0.2 with HCL.
Each neutralized sample is then subjected to a serial dilution, to the 10^−5 dilution to allow full enumeration of the surviving microbial population. For example, 1 ml of sample is added to 9 ml of PVUN, resulting in a 1:10 dilution, or 10^−1 dilution. A 1 ml sample of this 1:10 dilution is then added to another 9 ml PVUN, resulting in a 1:100 dilution, or 10^−2 dilution, and so on. Serial dilutions are carried out to 10^−5. 1.0 ml of the various dilutions (10^−1 or 10^−5) are then either spread or pour plated on TSA (tryptic soy agar, Becton Dickinson) and are then incubated for 72 hours at 35° C.±2° C.
After incubation, the plates are counted and recorded as cfu/ml survival vs. time (days 1, 2, 7, 14, 21, and 28 days). Results are recorded as log viable cells on specified sampling days. […]

In the case of `COC(=O)N[C@H](C(=O)N[C@@H](C)C(=O)N[C@H](C=O)CC(C)C)C(C)C` (Moc-Val-Ala-Leu-aldehyde), the “Growth of Gram negative bacteria in liquid laundry detergents” value is given as “prevents the growth of Gram negative bacteria”. Moreover, the “Count (log viable cells)” value (Day 1, inoculum 10^5 to 10^6 cfu/ml) is listed as 4.7 log viable cells. Moreover, for the setting “Day 2”, the “Count (log viable cells)” value is reported as 4.0 log viable cells. The “Count (log viable cells)” value (Day 7) was below 0.1 log viable cells. The “Count (log viable cells)” value (Day 14) was below 0.1 log viable cells. For the same compound, the “Count (log viable cells)” value (Day 21) is reported as below 0.1 log viable cells. Further, the “Count (log viable cells)” value (Day 28) is reported as below 0.1 log viable cells.
